Experimental data reported in paper PMC5597475 (Molecular imaging and biology : MIB : the official …, 2017).

Tests used:
LRRK2 [1] = target: LRRK2 (Mus musculus, UniProt Q5S006); assay: In vivo blocking study: [^3H]LRRK2-IN-1 co-administered with Pf-06447475 in mice; conditions: for % blocking (max.) of [^3H]LRRK2-IN-1 uptake: 10 mg/kg Pf-06447475, 10 mg/kg
LRRK2 kinase = LRRK2 kinase inhibitor; cited from earlier work
WT (wild-type) LRRK2 = conditions: cited from earlier work
LRRK2 [2] = target: LRRK2 (Homo sapiens, UniProt Q5S007); format: binding
LRRK2 [3] = target: LRRK2 (Rattus norvegicus, UniProt F1LNJ1); conditions: IC50 for displacement of [^3H]LRRK2-IN-1 binding, rat kidney; 10 nM radioligand
mutant G2019S type LRRK2 = conditions: cited from earlier work

LRRK2 (Mus musculus, UniProt Q5S006), sequence (Q5S006 whole entry): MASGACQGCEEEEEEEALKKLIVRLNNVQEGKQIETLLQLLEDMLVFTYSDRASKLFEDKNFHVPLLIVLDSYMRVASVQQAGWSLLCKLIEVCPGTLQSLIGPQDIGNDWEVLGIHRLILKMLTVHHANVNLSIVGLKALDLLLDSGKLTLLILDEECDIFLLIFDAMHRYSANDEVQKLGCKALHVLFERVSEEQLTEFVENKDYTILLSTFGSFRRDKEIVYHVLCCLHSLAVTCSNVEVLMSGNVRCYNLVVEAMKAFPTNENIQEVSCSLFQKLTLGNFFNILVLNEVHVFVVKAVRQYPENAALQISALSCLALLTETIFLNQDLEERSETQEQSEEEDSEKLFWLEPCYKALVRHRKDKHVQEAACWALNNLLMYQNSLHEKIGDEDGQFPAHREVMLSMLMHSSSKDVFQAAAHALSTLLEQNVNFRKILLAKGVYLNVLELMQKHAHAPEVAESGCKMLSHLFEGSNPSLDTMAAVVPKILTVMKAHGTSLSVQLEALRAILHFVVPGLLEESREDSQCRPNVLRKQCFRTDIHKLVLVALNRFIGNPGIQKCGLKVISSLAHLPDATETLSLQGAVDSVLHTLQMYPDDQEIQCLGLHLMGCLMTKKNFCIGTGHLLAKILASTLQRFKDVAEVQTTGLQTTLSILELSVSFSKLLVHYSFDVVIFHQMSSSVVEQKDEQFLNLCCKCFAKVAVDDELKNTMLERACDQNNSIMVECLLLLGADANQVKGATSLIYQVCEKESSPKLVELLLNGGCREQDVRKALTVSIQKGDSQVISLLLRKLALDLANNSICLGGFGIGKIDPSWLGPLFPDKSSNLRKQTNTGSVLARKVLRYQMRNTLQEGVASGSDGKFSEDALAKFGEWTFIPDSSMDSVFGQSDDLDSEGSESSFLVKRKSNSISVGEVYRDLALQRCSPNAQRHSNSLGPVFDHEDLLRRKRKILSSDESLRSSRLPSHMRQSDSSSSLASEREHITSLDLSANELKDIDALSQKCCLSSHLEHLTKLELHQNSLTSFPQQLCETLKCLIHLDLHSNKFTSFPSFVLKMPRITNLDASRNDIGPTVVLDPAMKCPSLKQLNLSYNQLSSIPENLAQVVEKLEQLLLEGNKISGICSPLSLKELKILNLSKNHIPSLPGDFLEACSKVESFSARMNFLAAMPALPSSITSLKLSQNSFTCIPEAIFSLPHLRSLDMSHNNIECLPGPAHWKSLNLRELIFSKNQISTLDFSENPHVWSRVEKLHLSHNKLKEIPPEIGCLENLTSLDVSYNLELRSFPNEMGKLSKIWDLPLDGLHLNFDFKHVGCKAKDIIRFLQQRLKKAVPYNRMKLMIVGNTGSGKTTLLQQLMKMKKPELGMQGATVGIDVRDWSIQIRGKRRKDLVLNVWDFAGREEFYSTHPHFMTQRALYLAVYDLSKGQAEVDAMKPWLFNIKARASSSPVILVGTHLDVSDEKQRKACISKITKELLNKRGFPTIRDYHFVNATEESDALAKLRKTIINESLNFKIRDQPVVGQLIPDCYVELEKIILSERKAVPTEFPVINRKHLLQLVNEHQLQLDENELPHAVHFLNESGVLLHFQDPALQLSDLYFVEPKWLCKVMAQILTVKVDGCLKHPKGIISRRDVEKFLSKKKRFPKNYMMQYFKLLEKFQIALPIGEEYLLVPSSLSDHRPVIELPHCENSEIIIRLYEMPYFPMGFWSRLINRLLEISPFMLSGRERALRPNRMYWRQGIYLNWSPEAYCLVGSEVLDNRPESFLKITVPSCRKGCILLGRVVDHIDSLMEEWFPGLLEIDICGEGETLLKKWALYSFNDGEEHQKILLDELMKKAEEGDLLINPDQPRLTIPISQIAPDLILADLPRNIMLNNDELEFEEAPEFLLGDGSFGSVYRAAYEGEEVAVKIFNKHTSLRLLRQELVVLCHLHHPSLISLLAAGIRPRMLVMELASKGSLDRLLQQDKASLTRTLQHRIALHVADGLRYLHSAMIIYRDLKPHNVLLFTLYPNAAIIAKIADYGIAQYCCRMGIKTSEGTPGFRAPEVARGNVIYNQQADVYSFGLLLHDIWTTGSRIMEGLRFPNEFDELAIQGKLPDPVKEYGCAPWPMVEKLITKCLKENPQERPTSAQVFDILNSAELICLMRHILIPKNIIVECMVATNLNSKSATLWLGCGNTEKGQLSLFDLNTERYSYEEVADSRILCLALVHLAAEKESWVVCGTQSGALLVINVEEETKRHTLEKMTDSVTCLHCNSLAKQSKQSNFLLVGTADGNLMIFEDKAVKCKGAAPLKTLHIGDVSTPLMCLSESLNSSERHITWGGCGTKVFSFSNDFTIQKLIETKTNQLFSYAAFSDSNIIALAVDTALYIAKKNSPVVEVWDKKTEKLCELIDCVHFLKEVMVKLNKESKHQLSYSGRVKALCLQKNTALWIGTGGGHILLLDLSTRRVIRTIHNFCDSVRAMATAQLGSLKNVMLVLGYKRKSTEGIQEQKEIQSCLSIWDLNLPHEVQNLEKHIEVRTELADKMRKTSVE
LRRK2 (Rattus norvegicus, UniProt F1LNJ1), sequence (F1LNJ1 1-2526): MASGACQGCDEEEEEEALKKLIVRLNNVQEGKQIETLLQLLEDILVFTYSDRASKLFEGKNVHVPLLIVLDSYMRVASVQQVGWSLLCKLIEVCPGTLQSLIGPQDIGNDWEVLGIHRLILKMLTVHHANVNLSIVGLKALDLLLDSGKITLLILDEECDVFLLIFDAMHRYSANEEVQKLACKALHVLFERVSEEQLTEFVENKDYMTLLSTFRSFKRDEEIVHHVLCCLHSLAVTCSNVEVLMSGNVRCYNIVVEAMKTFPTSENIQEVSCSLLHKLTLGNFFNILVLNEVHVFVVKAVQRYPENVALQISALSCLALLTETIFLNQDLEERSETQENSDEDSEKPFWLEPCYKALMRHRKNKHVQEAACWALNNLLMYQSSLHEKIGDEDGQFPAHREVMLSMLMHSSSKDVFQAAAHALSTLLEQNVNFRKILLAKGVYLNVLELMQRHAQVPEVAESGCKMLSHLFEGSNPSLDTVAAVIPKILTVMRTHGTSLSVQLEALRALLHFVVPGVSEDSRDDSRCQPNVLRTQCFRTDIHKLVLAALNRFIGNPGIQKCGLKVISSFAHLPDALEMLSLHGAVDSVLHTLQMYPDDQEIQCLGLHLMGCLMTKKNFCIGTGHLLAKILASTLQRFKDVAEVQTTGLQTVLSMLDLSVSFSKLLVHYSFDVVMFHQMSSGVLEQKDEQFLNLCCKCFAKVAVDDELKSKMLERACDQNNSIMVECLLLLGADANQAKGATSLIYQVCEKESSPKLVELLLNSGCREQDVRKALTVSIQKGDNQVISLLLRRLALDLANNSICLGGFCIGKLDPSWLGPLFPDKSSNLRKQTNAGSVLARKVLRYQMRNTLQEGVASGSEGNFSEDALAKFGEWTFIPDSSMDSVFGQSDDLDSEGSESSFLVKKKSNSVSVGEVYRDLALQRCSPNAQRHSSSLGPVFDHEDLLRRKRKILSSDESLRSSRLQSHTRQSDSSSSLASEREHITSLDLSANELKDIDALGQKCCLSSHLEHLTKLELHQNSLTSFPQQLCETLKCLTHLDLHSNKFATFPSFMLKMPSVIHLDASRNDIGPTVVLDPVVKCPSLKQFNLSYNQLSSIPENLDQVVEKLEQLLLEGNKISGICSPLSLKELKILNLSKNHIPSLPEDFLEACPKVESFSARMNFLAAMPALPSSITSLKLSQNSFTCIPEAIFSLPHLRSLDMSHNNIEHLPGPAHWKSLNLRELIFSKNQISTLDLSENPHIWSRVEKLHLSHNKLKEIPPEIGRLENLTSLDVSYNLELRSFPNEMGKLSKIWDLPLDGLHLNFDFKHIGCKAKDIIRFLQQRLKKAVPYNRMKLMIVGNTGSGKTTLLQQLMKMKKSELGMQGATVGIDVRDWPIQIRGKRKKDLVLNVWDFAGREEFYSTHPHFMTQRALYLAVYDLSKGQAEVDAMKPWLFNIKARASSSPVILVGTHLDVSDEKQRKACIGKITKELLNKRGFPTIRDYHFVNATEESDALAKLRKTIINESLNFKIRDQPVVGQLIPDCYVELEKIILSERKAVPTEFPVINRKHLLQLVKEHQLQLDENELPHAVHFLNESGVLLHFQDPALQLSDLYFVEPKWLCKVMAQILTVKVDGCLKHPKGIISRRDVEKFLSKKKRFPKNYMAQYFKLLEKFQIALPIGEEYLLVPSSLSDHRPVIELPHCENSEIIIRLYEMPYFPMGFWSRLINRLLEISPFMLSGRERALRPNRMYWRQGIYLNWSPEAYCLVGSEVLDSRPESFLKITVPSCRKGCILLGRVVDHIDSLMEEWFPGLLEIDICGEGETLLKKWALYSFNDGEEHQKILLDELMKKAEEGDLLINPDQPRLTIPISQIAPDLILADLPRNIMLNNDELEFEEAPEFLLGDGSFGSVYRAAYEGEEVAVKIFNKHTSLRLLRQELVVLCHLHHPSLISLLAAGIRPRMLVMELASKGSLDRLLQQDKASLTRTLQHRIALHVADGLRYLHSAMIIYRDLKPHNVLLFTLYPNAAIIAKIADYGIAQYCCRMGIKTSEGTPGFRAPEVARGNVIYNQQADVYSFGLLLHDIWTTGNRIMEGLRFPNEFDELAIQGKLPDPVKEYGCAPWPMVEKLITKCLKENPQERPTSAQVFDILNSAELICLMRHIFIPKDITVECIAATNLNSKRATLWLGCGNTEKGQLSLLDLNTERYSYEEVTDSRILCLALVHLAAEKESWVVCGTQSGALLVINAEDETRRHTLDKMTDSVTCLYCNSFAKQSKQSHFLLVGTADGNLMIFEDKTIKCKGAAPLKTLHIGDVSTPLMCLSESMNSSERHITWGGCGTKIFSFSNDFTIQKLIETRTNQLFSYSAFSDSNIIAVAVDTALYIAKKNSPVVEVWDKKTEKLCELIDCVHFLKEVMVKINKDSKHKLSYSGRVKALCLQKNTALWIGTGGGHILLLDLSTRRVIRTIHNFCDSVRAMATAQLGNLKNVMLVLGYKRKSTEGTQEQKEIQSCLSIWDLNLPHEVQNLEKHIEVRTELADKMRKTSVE

Compound | % blocking (max.) of [^3H]LRRK2-IN-1 uptake (LRRK2 [1]; brain) [%] | Reduction of [^3H]LRRK2-IN-1 uptake (LRRK2 [1]; heart, 10 mg/kg Pf-06447475) [%] | Reduction of [^3H]LRRK2-IN-1 uptake (%ID/g) (LRRK2 [1]; in the kidney or brain, 10 mg/kg Pf-06447475) | % blocking (max.) of [^3H]LRRK2-IN-1 uptake (LRRK2 [1]; kidney) [%] | Reduction of [^3H]LRRK2-IN-1 uptake (LRRK2 [1]; liver, 10 mg/kg Pf-06447475) [%] | Reduction of [^3H]LRRK2-IN-1 uptake (LRRK2 [1]; lung, 10 mg/kg Pf-06447475) [%] | Reduction of [^3H]LRRK2-IN-1 uptake (LRRK2 [1]; muscle, 10 mg/kg Pf-06447475) [%] | Reduction of [^3H]LRRK2-IN-1 uptake (LRRK2 [1]; spleen, 10 mg/kg Pf-06447475) [%] | IC50 (LRRK2 kinase) [nM] | IC50 (WT (wild-type) LRRK2) [nM] | IC50 (LRRK2 [2]) [nM] | IC50 (LRRK2 [3]) [nM] | IC50 (mutant G2019S type LRRK2) [nM]
N#Cc1cccc(-c2c[nH]c3ncnc(N4CCOCC4)c23)c1 [Pf-06447475, 3-[4-(morpholin-4-yl)-7H-pyrrolo[2,3-d]pyrimidin-5-yl] benzonitrile] | 62 | 72 | 50–60% | 54 | 34 | 78 | 62 | 40 | 3 | – | – | – | –
COc1cc(C(=O)N2CCC(N3CCN(C)CC3)CC2)ccc1Nc1ncc2c(n1)N(C)c1ccccc1C(=O)N2C [LRRK2-IN-1] | – | – | – | – | – | – | – | – | – | 13 | 73 ± 6 | 40 ± 4 | 6
